Laboratory results taken from patent US5656600A, “α-ketoamide derivatives as inhibitors of thrombosis” (Corvas International, Inc., priority 1993, dated 1997).

Tests used:
α-thrombin = α-thrombin (Homo sapiens, UniProt P00734); assay: Amidolytic thrombin assay (inhibition constant Ki); assay type: biochemical
Method: The ability of the compounds of the present invention to act as inhibitors of thrombin catalytic activity in comparison to Hirulog-1 (compound 25) was assessed by determining their inhibition constant, Ki.
Enzyme activity was determined using the chromogenic substrate Pefachrome t-PA (CH3 SO2 -D-hexahydrotyrosine-glycyl-L-arginine-p-nitroaniline, obtained from Pentapharm Ltd.). The substrate was reconstituted in deionized water prior to use.
Ki values were determined for test compounds using the following methodologies:
The assay was conducted by combining in appropriate wells of a Corning microtiter plate, 50 μL of HBSA, 50 μL of the test compound at a specified concentration diluted in HBSA (or HBSA alone for Vo(uninhibited velocity) measurement), and 50 μL of the chromogenic substrate diluted in HBSA. At time zero, 50 μL of α-thrombin diluted in HBSA, was added to the wells yielding a final concentration of 0.25 nM in a total volume of 200 μL. Velocities of Pefachrome-tPA substrate hydrolysis which occurred over a 40 minute time period was measured by the change in absorbance at 405 nm using a Thermo Max® Kinetic Microplate Reader. […] The linear relationship between kobs and inhibitor concentration is indicative of a competitive, one step mechanism and was used to calculate kon and koff which yielded a value for Ki after taking into consideration the concentration and Km (38.5 μM) of the substrate in the assay.
The initial velocity of Pefachrome t-PA hydrolysis was measured by the change in absorbance at 405 nm using a Thermo Max® Kinetic Microplate Reader over a 2 minute period in which less than 5% of the added substrate was utilized. The relationship between the ratio of the inhibited steady-state velocity (Vs) and the uninhibited velocity (Vo) to the concentration of inhibitor [It ], was analyzed using Equation 1 developed by Morrison , J. F., Biochim. Biophys. Acta, 185:269 (1969) for inhibitors which deplete a significant amount of the total enzyme (Et) over the course of the assay (designated tight binding inhibitors):
Vs/Vo={([Et ]-[It ]-Ki*)+[([It ]+Ki*-[Et ])^2
Ki* was determined by fitting Vs/Vo verses [I] using Equation 1 by non-linear regression analysis.
The best fit of the data for both compounds was to the equation describing competitive inhibition.

[1] = system: pooled normal human plasma; assay: Ex vivo coagulation assay (APTT); conditions: normal citrated human plasma; FIG. 3
Method: Fresh frozen pooled normal human plasma was obtained from George King Biomedical, Overland Park, KA. Measurements APTT was made using the Coag-A-Mate RA4 automated coagulometer (General Diagnostics, Organon Technica, Oklahoma City, OK) using the Automated APTT reagent (Organon Technica, Durham, NC) as the initiator of clotting according to the manufacturers instructions. The assay was conducted by making a series of dilutions of the test compounds in rapidly thawed plasma followed by adding 200 μL to the wells of the assay carousel.

Substance: (D--Phe)--Pro--Arg--Pro--(Gly4 --Asn--Gly--Asp--Phe--Glu--Glu--IIe--Pro--Glu--Glu--Tyr--Leu--OH [Compound 25]
- Ki (α-thrombin; chromogenic substrate Pefachrome t-PA, HBSA pH 7.5, slow-binding (kon/koff) or Dixon analysis): 0.437 nM
- kinetics / mechanism of thrombin inhibition (α-thrombin; in words): rapid, reversible kinetics of inhibition
- prolongation of activated partial thromboplastin time (APTT) [1]: prolonged the APTT in a dose dependent manner
